Earlier results in patent US20110257262A1, “CRYSTALLINE INGENOL MEBUTATE” (LEO PHARMA A/S, priority 2010, published 2011).

Legend:
normal cells = settings: compared with skin cancer cells
skin cancer cells = settings: via rapid mitochondrial disruption and cell death by primary necrosis

SMILES: C/C=C(/C)C(=O)O[C@H]1C(C)=C[C@]23C(=O)[C@@H](C=C(CO)[C@@H](O)[C@]12O)[C@H]1[C@@H](C[C@H]3C)C1(C)C [Ingenol mebutate, (1aR,2S,5R,5aS,6S,8aS,9R,10aR)-5,5a-dihydroxy-4-(hydroxy-methyl)-1,1,7,9-tetramethyl-11-oxo-1a,2,5,5a,6,9,10,10a-octahydro-1H2,8a-methanocyclopenta[a]cyclopropa[e]cyclodecen-6-yl(2Z)-2-methylbut-2-enoate]
- sensitivity of normal cells (normal cells): less sensitive
- toxicity for skin cancer cells (skin cancer cells): highly toxic
